Molecules are shown by their SMILES.

One may read the DC50 as the midpoint of the concentration-degradation curve.

The assay has as its target T1, Endogenous BCL6 (Homo sapiens, UniProt P41182).
T1 construct: Endogenous BCL6 was tagged with the 11-amino acid SmBiT through CRISPR/Cas9 gene editing; endogenous in cells; host or cells: SU-DHL-4 (CRISPR/Cas9 knock-in single cell clone)
Description: HiBiT cellular degradation assay in SU-DHL-4 cells. Type of assay: cell-based. The settings on record: 24 hours of compound treatment, concentration to reach 50% degradation. The procedure: DC50 (concentration to reach 50% degradation) values were determined from a cellular degradation assay (HiBiT, Promega™) in Su-DHL-4 cells (Table 1). Endogenous BCL6 was tagged with the 11-amino acid SmBiT through CRISPR/Cas9 gene editing and single cell clone selection. After 24 hours of compound treatment, cells were lysed and incubated with LgBiT protein to reconstitute intact nanoluciferase. Substrate was then added and relative luciferase units were measured. Degradation levels for each treatment were taken as a percentage compared to the control, 100% DMSO (Prism).
For `CNC(=O)CCn1c(=O)c(=O)n(C)c2ccc(Nc3nc(N4C[C@H](C)C[C@H](C)C4)ncc3Cl)cc21` [Compound 1, 3-(7-((5-chloro-2-((3S,5R)-3,5-dimethylpiperidin-1-yl)pyrimidin-4-yl)amino)-4-methyl-2,3-dioxo-3,4-dihydroquinoxalin-1(2H)-yl)-N-methylpropanamide], the half-maximal degradation concentration (DC50) stood at 25 nM. The figure for `C[C@@H]1CN(c2ncc(Cl)c(Nc3ccc4c(c3)n(CCC(=O)NC3CN(C)C3)c(=O)c(=O)n4C)n2)C[C@H](C)C1(F)F` [Compound 8] is above 10000 nM.

`C[C@@H]1CN(c2ncc(Cl)c(Nc3ccc4c(c3)n(CCC(=O)NC3CCN(C)C3)c(=O)c(=O)n4C)n2)C[C@H](C)C1(F)F` (stereo partly shown) [Compound 9] came in with a DC50 of 220 nM. The figure for `C[C@@H]1CN(c2ncc(Cl)c(Nc3ccc4c(c3)n(CCC(=O)NCC3CN(C)C3)c(=O)c(=O)n4C)n2)C[C@H](C)C1(F)F` [Compound 11] is 3100 nM; for `C[C@@H]1CN(c2ncc(Cl)c(Nc3ccc4c(c3)n(CCC(=O)NCC3CCN(C)C3)c(=O)c(=O)n4C)n2)C[C@H](C)C1(F)F` (stereo partly shown) [Compound 12] it is 1800 nM; for `C[C@@H]1CN(c2ncc(Cl)c(Nc3ccc4c(c3)n(CCC(=O)NCCN(C)C)c(=O)c(=O)n4C)n2)C[C@H](C)C1(F)F` [Compound 18] it is 450 nM. `C[C@@H]1CN(c2ncc(Cl)c(Nc3ccc4c(c3)n(CCC(=O)NCCCN(C)C)c(=O)c(=O)n4C)n2)C[C@H](C)C1(F)F` [Compound 19]: half-maximal degradation (DC50) was put at 500 nM. In turn, `C[C@@H]1CN(c2ncc(Cl)c(Nc3ccc4c(c3)n(CCC(=O)NC3COC3)c(=O)c(=O)n4C)n2)C[C@H](C)C1(F)F` [Compound 28] displayed a DC50 of 32 nM. The figure for `C[C@@H]1CN(c2ncc(Cl)c(Nc3ccc4c(c3)n(CCC(=O)NC3CCOC3)c(=O)c(=O)n4C)n2)C[C@H](C)C1(F)F` (stereo partly shown) [Compound 29] is 71 nM; for `C[C@@H]1CN(c2ncc(Cl)c(Nc3ccc4c(c3)n(CCC(=O)NCC3COC3)c(=O)c(=O)n4C)n2)C[C@H](C)C1(F)F` [Compound 31] it is 160 nM. The figure for `C[C@@H]1CN(c2ncc(Cl)c(Nc3ccc4c(c3)n(CCC(=O)NCC3CCOC3)c(=O)c(=O)n4C)n2)C[C@H](C)C1(F)F` (stereo partly shown) [Compound 32] is 150 nM. The figure for `CNC(=O)Cn1c(=O)c(=O)n(C)c2ccc(Nc3nc(N4C[C@@H](C)C(F)(F)[C@@H](C)C4)ncc3Cl)cc21` [Compound 56, 2-(7-((5-chloro-2-((3R,5S)-4,4-difluoro-3,5-dimethylpiperidin-1-yl)pyrimidin-4-yl)amino)-4-methyl-2,3-dioxo-3,4-dihydroquinoxalin-1(2H)-yl)-N-methylacetamide] is 14 nM; for `C[C@@H]1CN(c2ncc(Cl)c(Nc3ccc4c(c3)n(CC(=O)NCCN(C)C)c(=O)c(=O)n4C)n2)C[C@H](C)C1(F)F` [Compound 57] it is 340 nM. `C[C@@H]1CN(c2ncc(Cl)c(Nc3ccc4c(c3)n(CC(=O)NC3CN(C)C3)c(=O)c(=O)n4C)n2)C[C@H](C)C1(F)F` [Compound 58] displayed a DC50 of 870 nM. The figure for `C[C@@H]1CN(c2ncc(Cl)c(Nc3ccc4c(c3)n(CC(=O)NC3CCN(C)C3)c(=O)c(=O)n4C)n2)C[C@H](C)C1(F)F` (stereo partly shown) [Compound 59] is 970 nM. With `C[C@@H]1CN(c2ncc(Cl)c(Nc3ccc4c(c3)n(CC(=O)NC3CCN(C)CC3)c(=O)c(=O)n4C)n2)C[C@H](C)C1(F)F` [Compound 60] the figure was 1120 nM; with `CNC(=O)C(C)(C)Cn1c(=O)c(=O)n(C)c2ccc(Nc3nc(N4C[C@@H](C)C(F)(F)[C@@H](C)C4)ncc3Cl)cc21` [Compound 68], 100 nM. As for `C[C@@H]1CN(c2ncc(Cl)c(Nc3ccc4c(c3)n(CCC(=O)NCC(C)(C)O)c(=O)c(=O)n4C)n2)C[C@H](C)C1(F)F` [Compound 73], it took 130 nM to reach half-maximal degradation (DC50). The figure for `CNC(=O)[C@H]1C[C@@H](n2c(=O)c(=O)n(C)c3ccc(Nc4nc(N5C[C@@H](C)C(F)(F)[C@@H](C)C5)ncc4Cl)cc32)C1` [Compound 75-1] is 290 nM; for `CNC(=O)[C@H]1C[C@H](n2c(=O)c(=O)n(C)c3ccc(Nc4nc(N5C[C@@H](C)C(F)(F)[C@@H](C)C5)ncc4Cl)cc32)C1` [Compound 75-2] it is 100 nM. The figure for `CNC(=O)CCn1c(=O)c(=O)n(C)c2ccc(Nc3nc(N4C[C@H](CCN)C(F)(F)[C@H](C)C4)ncc3Cl)cc21` [Compound 80] is above 10000 nM; for `CNC(=O)CCn1c(=O)c(=O)n(C)c2ccc(Nc3nc(N4C[C@@H](CCN)C(F)(F)[C@@H](C)C4)ncc3Cl)cc21` [Compound 81] it is 250 nM. The figure for `CNC(=O)CCn1c(=O)c(=O)n(C)c2ccc(Nc3nc(N4C[C@@H](C)C(F)(F)[C@@H](N)C4)ncc3Cl)cc21` [Compound 82] is 84 nM; for `CNC(=O)CCn1c(=O)c(=O)n(C)c2ccc(Nc3nc(N4C[C@@H](N)C(F)(F)[C@@H](C)C4)ncc3Cl)cc21` [Compound 83] it is 920 nM. The compound `CNC(=O)CCn1c(=O)c(=O)n(C)c2ccc(Nc3nc(N4C[C@@H](O)C(F)(F)[C@@H](C)C4)ncc3Cl)cc21` [Compound 85] gave a DC50 of 94 nM. The compound `CNC(=O)Cn1c(=O)c(=O)n(C)c2ccc(Nc3nc(N4C[C@@H](C)C(F)(F)[C@@H](N)C4)ncc3Cl)cc21` [Compound 86] registered a half-maximal degradation concentration (DC50) of 120 nM.

For the compound `CNC(=O)Cn1c(=O)c(=O)n(C)c2ccc(Nc3nc(N4C[C@@H](N)C(F)(F)[C@@H](C)C4)ncc3Cl)cc21` [Compound 87], the DC50 was 230 nM.

On to `C[C@@H]1C[C@H](C)CN(c2ncc(Cl)c(Nc3ccc4c(c3)n(CC[C@@H](C)O)c(=O)c(=O)n4C)n2)C1` [Compound 107], for which half-maximal degradation (DC50) was put at 47 nM. With `C[C@@H]1CN(c2ncc(Cl)c(Nc3ccc4c(c3)n(C[C@H]3C[C@H](O)C3)c(=O)c(=O)n4C)n2)C[C@H](C)C1F` (stereo partly shown) [Compound 108] the figure was 43 nM; with `C[C@@H]1CN(c2ncc(Cl)c(Nc3ccc4c(c3)n(C[C@H]3C[C@@H](O)C3)c(=O)c(=O)n4C)n2)C[C@H](C)C1F` (stereo partly shown) [Compound 109], 4 nM; with `C[C@@H]1CN(c2ncc(Cl)c(Nc3ccc4c(c3)n(CCC3(O)CC3)c(=O)c(=O)n4C)n2)C[C@H](C)C1F` (stereo partly shown) [Compound 110], 18 nM. The figure for `C[C@@H]1CN(c2ncc(Cl)c(Nc3ccc4c(c3)n(CCC3(O)CCC3)c(=O)c(=O)n4C)n2)C[C@H](C)C1F` (stereo partly shown) [Compound 111] is 34 nM; for `C[C@@H]1CN(c2ncc(Cl)c(Nc3ccc4c(c3)n(CCC3(O)COC3)c(=O)c(=O)n4C)n2)C[C@H](C)C1F` (stereo partly shown) [Compound 112] it is 25 nM.

In the case of `C[C@@H]1CN(c2ncc(Cl)c(Nc3ccc4c(c3)n(C[C@@H]3CNC(=O)O3)c(=O)c(=O)n4C)n2)C[C@H](C)[C@@H]1F` [Compound 117], the DC50 is 130 nM.

Regarding `C[C@@H]1CN(c2ncc(Cl)c(Nc3ccc4c(c3)n(C[C@@H]3COC(=O)N3)c(=O)c(=O)n4C)n2)C[C@H](C)[C@@H]1F` [Compound 118], the DC50 turned out to be 120 nM. The figure for `C[C@@H]1CN(c2nc(Nc3ccc4c(c3)n(CCC3(O)CC3)c(=O)c(=O)n4C)c(Cl)cc2C#N)C[C@H](C)[C@@H]1F` [Compound 119] is 13 nM; for `CNC(=O)CCn1c(=O)c(=O)n(C)c2ccc(Nc3nc(N4C[C@H](CCO)C(F)(F)[C@H](C)C4)c(C#N)cc3Cl)cc21` [Compound 120] it is 1900 nM; for `CNC(=O)CCn1c(=O)c(=O)n(C)c2ccc(Nc3nc(N4C[C@@H](CCO)C(F)(F)[C@@H](C)C4)c(C#N)cc3Cl)cc21` [Compound 121] it is 71 nM. With `C[C@@H]1CN(c2ncc(Cl)c(Nc3ccc4c(c3)n(CC[C@@H](C)O)c(=O)c(=O)n4C)n2)C[C@H](C)[C@@H]1F` [Compound 122] the figure was 19 nM.

The compound `C[C@H](O)CCn1c(=O)c(=O)n(C)c2ccc(Nc3nc(N4C[C@@H](C)[C@@H](F)[C@@H](C)C4)ncc3Cl)cc21` [Compound 123] gave a half-maximal degradation concentration (DC50) of 23 nM.

(Values after patent US20260001862A1, “QUINOXALINEDIONE AND PYRIDO[2,3-B]PYRAZINE-2,3-DIONE B CELL LYMPHOMA 6 (BCL6) DEGRADERS AND USES THEREOF” (DANA-FARBER CANCER INSTITUTE, INC., priority 2022, published 2026).)
